Reference: ChEMBL document CHEMBL2073841, “ATP-dependent transport of aflatoxin B1 and its glutathione conjugates by the product of the multidrug resistance protein (MRP) gene” (Mol Pharmacol, 1997)

Biological target: MRP1 (Multidrug resistance-associated protein 1) (Homo sapiens, UniProt P33527)
Assay: TP_TRANSPORTER: uptake in membrane vesicle from MRP1-expressing HeLa cells
Format: functional, cell membranes
Settings: membrane vesicles from MRP1-expressing HeLa cells

Sequence of MRP1 (Multidrug resistance-associated protein 1) (P33527 whole entry): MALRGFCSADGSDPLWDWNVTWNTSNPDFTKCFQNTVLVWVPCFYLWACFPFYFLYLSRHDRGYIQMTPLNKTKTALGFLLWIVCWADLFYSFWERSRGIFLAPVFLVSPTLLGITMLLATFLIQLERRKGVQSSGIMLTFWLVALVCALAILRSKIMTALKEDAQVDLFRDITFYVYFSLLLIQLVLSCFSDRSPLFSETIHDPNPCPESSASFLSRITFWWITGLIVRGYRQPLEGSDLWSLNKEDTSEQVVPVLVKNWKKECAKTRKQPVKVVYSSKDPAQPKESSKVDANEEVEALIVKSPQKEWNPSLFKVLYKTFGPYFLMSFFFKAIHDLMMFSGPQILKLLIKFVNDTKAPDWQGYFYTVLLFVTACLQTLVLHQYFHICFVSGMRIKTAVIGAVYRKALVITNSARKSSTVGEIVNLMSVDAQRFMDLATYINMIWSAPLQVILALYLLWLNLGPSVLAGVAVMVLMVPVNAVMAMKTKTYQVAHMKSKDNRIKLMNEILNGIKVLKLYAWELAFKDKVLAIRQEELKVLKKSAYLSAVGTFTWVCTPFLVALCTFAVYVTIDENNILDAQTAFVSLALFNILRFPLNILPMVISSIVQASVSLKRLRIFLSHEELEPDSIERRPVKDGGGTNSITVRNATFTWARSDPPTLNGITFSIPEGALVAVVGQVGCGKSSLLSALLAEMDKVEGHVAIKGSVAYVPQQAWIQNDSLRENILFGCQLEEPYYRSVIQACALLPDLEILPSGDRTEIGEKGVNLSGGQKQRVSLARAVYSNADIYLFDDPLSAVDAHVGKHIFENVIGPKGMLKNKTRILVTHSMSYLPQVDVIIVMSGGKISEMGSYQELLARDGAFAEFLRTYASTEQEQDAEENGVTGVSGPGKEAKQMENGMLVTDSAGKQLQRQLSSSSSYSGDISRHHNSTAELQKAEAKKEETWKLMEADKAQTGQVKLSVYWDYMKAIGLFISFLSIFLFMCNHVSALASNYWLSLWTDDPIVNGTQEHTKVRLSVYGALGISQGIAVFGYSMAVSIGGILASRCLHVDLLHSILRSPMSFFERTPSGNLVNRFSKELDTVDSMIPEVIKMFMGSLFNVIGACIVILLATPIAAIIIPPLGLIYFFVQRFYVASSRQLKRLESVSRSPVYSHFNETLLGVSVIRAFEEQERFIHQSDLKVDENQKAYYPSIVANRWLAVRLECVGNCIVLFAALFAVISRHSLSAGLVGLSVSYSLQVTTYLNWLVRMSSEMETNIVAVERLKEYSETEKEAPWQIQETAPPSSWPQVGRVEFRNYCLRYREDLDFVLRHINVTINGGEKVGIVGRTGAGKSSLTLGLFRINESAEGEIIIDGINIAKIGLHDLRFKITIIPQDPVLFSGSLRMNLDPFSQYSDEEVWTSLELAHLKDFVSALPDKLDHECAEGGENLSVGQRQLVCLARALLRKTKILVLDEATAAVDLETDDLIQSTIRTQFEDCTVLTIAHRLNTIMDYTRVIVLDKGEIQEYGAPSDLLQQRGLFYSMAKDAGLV

COc1cc2c(c3oc(=O)c4c(c13)CCC4=O)[C@H]1[C@@H](O2)O[C@H](SC[C@@H](NC(=O)CC[C@H](N)C(=O)O)C(=O)NCC(=O)O)[C@H]1O
Km: 0.189 µM
